Data set [1] is described as follows: Safety and tolerability of the oral rinse. The data set is classed as in vivo, human. Particulars: for safe administration: 200 mg WR-2721 (10 ml 0.09 M) or 125 mg WR-1065 (10 ml 0.09 M). The protocol:
The amifostine is administered to the patient in the formulation described above (Table 2). Specifically, 125 mg of amifostine is provided as an oral rinse. The patient rinses for approximately one minute and thereafter, expels/discards the rinse. The rinse process can be repeated.
In this study, WR-1065 is detected in washed, isolated, vital mouth mucosa cells at a concentration of about 3.7-19.9 ng/10^5 cells.

The subject of data set [2] is epirubicin-induced oral mucositis. Particulars: cited from earlier work.
The conditions of data set [3]: intravenous administration; cited from earlier work.
The conditions of data set [4]: cited from earlier work.
The conditions of data set [5]: after amifostine injection; cited from earlier work.

Molecules are shown by their SMILES.

In the case of `NCCCNCCSP(=O)(O)O` [Amifostine, S-2-(3-aminopropylamino) ethyl dihydrogen phosphorothioate], the safe administration result in data set [1] is “can be safely administered”. For the same compound, the “difference between patients given amifostine oral rinse and control” value in data set [2] is given as “no significant difference”. Moreover, the “clearance from the plasma” value in data set [3] is “rapidly cleared”. Also, in data set [4] (hydrolysis of P-S bond to WR-1065), the “pH of the maximal rate of hydrolysis” value is given as 3.0. Further, in data set [4] (pH from 1 to 3), the “stability at the gastric pH” value was “unstable”.

For `NCCCNCCS` [WR-1065], the safe administration result in data set [1] is reported as “can be safely administered”. In data set [1] (oral rinse), the systemic side-effects result is reported as “no systemic side-effects” and the tolerability result is “well-tolerated”. Besides, in data set [5], the “time of maximum tissue concentrations of WR-1065” value was “within five to fifteen minutes”.

The values above are taken from patent US11793820B2, “Dry powder foamable formulations for delivery of medicaments through the mucosa” (priority 2021, dated 2023).
